Converted amounts (≈) assume the structure as drawn. Like-named read-outs stand apart in the source and are kept apart here.
Experiments:
rose explants = assay: In vitro and post vitro multiplication and rooting of rose; type: in vivo, Rosa multiflora; settings: for Number of roots per plant / Overall length of plant (cm): Ex vitro, after four weeks of acclimatising in peat; for Number of new shoots per explant / Number of roots per explant / Overall length of explant (cm) / number of flowers per explant: In vitro, 10 μM cytokinin, 8 weeks
Protocol: The aim of this experiment was to test whether the new compounds are of practical use in tissue culture practice. The multiplication rate was investigated and the post vitro effects on rooting were examined Rosa hybrida (pot rose cultivar) was cultured in 350 ml vessels with a screw on polycarbonate lid. Each culture vessel contained 100 ml autoclaved medium (120° C., 20 min). The cultures were maintained at 23±2° C. under a 16 h photoperiod at 40 μM·m^−2 s^−1 PAR. The basal medium (BMR) contained Murashige and Skoog (1962) macroelements, microelements and vitamins, 95 μM NaFeEDTA, 555 μM myo-inositol, 111 mM sucrose, 1.332 mM glycine, 684 μM L-glutamine and 7 g/l agar. This medium was supplemented with 10 μM BAP, mT, or 3MeOBAP, or the corresponding mesylate salts. The control medium didn't contain any cytokinin After a culture period of 8 weeks, the number of induced shoots per explant was determined, as well as root number/explant and total root length/explant. The roots were removed and the explants (shoot clusters) were planted in unfertilised peat. After four weeks of acclimatising in a fog unit, root number and root length was determined. As expected, a cytokinin free medium yielded almost no new shoots. The original shoot explant grew out as a good quality single shoot that rooted very well. […] Explants growing on cytokininin mesylates were characterized by a high multiplication index (a large number of new shoots) and were more rooted in comparison with free bases. The use of cytokinin mesylates led to an increase in all monitored parameters in plant culture compared to free cytokinin bases.

NIH-3T3 = assay: In vitro cytotoxicity, Calcein AM assay, NIH-3T3; type: cell-based; settings: Mus musculus, NIH3T3, 72 h, 3-day Calcein-AM assay
Description: Because toxic compounds adversely affect cell metabolic processes, many standard cytotoxicity assays are based on measuring the rate of metabolism of various artificial substrates. The resulting product is then quantified, for example, by spectrometry. Assays can be easily modified for use in 96-well plates, A microtiter assay based on the quantification of Calcein AM metabolism was used to evaluate the cytotoxicity of cytokinins, for example meta-topolin, ortho-topolin, kinetin, BAP or its mesylate salts, but also a number of other cytokinin mesylate derivatives according to the invention. The test is widely used in drug screening programs and in chemosensitivity testing. In living cells, Calcein AM is enzymatically hydrolyzed and the accumulation of the resulting calcein is manifested by green fluorescence. The following cell lines—RPMI 8226 (multiple myeloma), CEM (T-lymphoblastic leukemia), K562 (chronic myeloid leukemia), HL-60 (promyelocytic, leukemia), MCF-7 (breast adenocarcinoma), HeLa (cervical cancer), G361 (malignant melanoma), HOS (human osteosarcoma) and BJ (human foreskin fibroblasts)—were obtained from the American Type Culture Collection (Manassas, VA, USA). These cells were maintained in standard DMEM or RPMI medium (Sigma, MO, USA) supplemented with heat-inactivated fetal bovine serum (10%) with 2 mM L-glutamine and penicillin-streptomycin (1%) under standard cell culture conditions (37° C., 5% CO2 in a humid environment) and subcultured two or three times a week using a standard trypsinization procedure. Approximately 10,000 cells in 80 μl of medium were seeded in a 96-well microtiter plate. After 12 hours of incubation, the compounds to be tested were added in 20 μl aliquots. Control cultures were treated with DMSO alone. […] Serial, 3-fold dilutions (six in total, peak concentrations in 166 μM incubations) of each compound were tested. After 72 hours of incubation, Calcein AM solution (Molecular Probes) was added to a final concentration of 1 μg/ml and the cells were incubated for another hour. Free calcein fluorescence was then quantified using a Fluoroscan Ascent fluorometer (Microsystems), and the percentage of surviving cells in each well was calculated by dividing the OD obtained from each cell by the exposed cells by the mean OD obtained from control wells×100%, Finally, IC50 values (concentration causing a 50% decrease in cellular esterase activity) were calculated for each compound generated from dose-response curves (Krys̆tof et al., 2005, Bioorg. Med. Chem. Lett. 12, 3283-3286). The IC50 values reported here are averages obtained from at least three independent experiments, where the individual replication values fell within 20% of the average. […]

[1] = test system: G361 (malignant melanoma); assay: In vitro cytotoxicity, Calcein AM assay, G-361; type: cell-based; settings: Homo sapiens, 72 h, 3-day Calcein-AM assay
Description: Because toxic compounds adversely affect cell metabolic processes, many standard cytotoxicity assays are based on measuring the rate of metabolism of various artificial substrates. The resulting product is then quantified, for example, by spectrometry. Assays can be easily modified for use in 96-well plates, A microtiter assay based on the quantification of Calcein AM metabolism was used to evaluate the cytotoxicity of cytokinins, for example meta-topolin, ortho-topolin, kinetin, BAP or its mesylate salts, but also a number of other cytokinin mesylate derivatives according to the invention. The test is widely used in drug screening programs and in chemosensitivity testing. In living cells, Calcein AM is enzymatically hydrolyzed and the accumulation of the resulting calcein is manifested by green fluorescence. The following cell lines—RPMI 8226 (multiple myeloma), CEM (T-lymphoblastic leukemia), K562 (chronic myeloid leukemia), HL-60 (promyelocytic, leukemia), MCF-7 (breast adenocarcinoma), HeLa (cervical cancer), G361 (malignant melanoma), HOS (human osteosarcoma) and BJ (human foreskin fibroblasts)—were obtained from the American Type Culture Collection (Manassas, VA, USA). These cells were maintained in standard DMEM or RPMI medium (Sigma, MO, USA) supplemented with heat-inactivated fetal bovine serum (10%) with 2 mM L-glutamine and penicillin-streptomycin (1%) under standard cell culture conditions (37° C., 5% CO2 in a humid environment) and subcultured two or three times a week using a standard trypsinization procedure. Approximately 10,000 cells in 80 μl of medium were seeded in a 96-well microtiter plate. After 12 hours of incubation, the compounds to be tested were added in 20 μl aliquots. Control cultures were treated with DMSO alone. […] Serial, 3-fold dilutions (six in total, peak concentrations in 166 μM incubations) of each compound were tested. After 72 hours of incubation, Calcein AM solution (Molecular Probes) was added to a final concentration of 1 μg/ml and the cells were incubated for another hour. Free calcein fluorescence was then quantified using a Fluoroscan Ascent fluorometer (Microsystems), and the percentage of surviving cells in each well was calculated by dividing the OD obtained from each cell by the exposed cells by the mean OD obtained from control wells×100%, Finally, IC50 values (concentration causing a 50% decrease in cellular esterase activity) were calculated for each compound generated from dose-response curves (Krys̆tof et al., 2005, Bioorg. Med. Chem. Lett. 12, 3283-3286). The IC50 values reported here are averages obtained from at least three independent experiments, where the individual replication values fell within 20% of the average. Growth inhibition was calculated using the following equation: […](mean FDwell exposed to drug−mean FDblank)/(mean FDcontrol well−mean FDblank)×100%.
Cytoxicity of compounds was tested on panel of cell lines of different histogenetic and species origin.

keratinocytes HaCaT = assay: Cytotoxicity for non-cancer cells, resazurine reduction assay, HaCaT
Protocol: (§1) It is used for viability testing of both bacterial and eukaryotic cells. […] Cultivation medium was DMEM with 10% FBS. Before the experiment, the cells were subcultured for 2 weeks. For the cytotoxicity evaluation, the cells were trypsinized and pipetted into 96 well plates (5000 cells per well in 80 microliters). After 24 hours, 5× concentrated solutions of the tested compounds in the medium were added. […] IC50 values were calculated from dose response curves using drc library for R programming environment.

[2] = test system: retinal epitelium cells ARPE-19; assay: Cytotoxicity for non-cancer cells, resazurine reduction assay, ARPE-19
Protocol: as §1

skin fibroblasts BJ = assay: Cytotoxicity for non-cancer cells, resazurine reduction assay, BJ; settings: human, 72 h
Protocol: as §1

[3] = Disproportionation stability study (water slurry, XRPD); type: physicochemical; settings: slurried in distilled water ca. 48 hours
Protocol: A 50 mg sample of crystalline meta-topolin mesylate crystalline salt was slurried in 250 μL distilled water for ca. 48 hours and then checked by XRPD for disproportionation.

[4] = Storage stability study of solid crystalline salt (XRPD, colour); type: physicochemical; settings: sealed tube, 25° C., 60 days
Protocol: 50 mg sample of crystalline meta-topolin mesylate crystalline salt was placed in an eppendorf tube and sealed. The sample was kept at 25° C. for 60 days. No color change was noted during the storage period. XRPD of samples were taken after 60 days to investigate any solid form change.

[5] = Solubility in organic solvents (progressive solvent addition); type: physicochemical; settings: organic solvent or mixture, thermodynamic from solid
Protocol: Solubility in organic solvents was measured using the following protocol. Approximately 25 mg portions of meta-topolin and crystalline meta-topolin mesylate salt were placed in 48 different vials, separately. 5 volume aliquots of each solvent were added progressively (repeatedly) to the vials. After each addition, the mixture was checked for dissolution and if no dissolution was visible, the procedure was continued until dissolution was observed, or until 50 volumes have been added.

[6] = water; reported value; cited from earlier work
[7] = resazurin, 72 hour treatment, HaCaT
[8] = resazurin, 72 hour treatment, ARPE-19
[9] = DMF, read-out: Solubility in DMF
[10] = DMSO, read-out: Solubility in DMSO
[11] = acetone, read-out: Solubility in aceton
[12] = acetonitrile, read-out: Solubility in acetonitrile
[13] = ethanol, read-out: Solubility in ethanol
[14] = heptane, read-out: Solubility in heptane
[15] = methanol, read-out: Solubility in methanol

Row | Compound | Number of roots per plant (rose explants) | Overall length of plant (cm) (rose explants) | Number of new shoots per explant (rose explants) | Number of roots per explant (rose explants) | Overall length of explant (cm) (rose explants) | number of flowers per explant (rose explants) | IC50 (NIH-3T3) [µM] | IC50 [1] [µM] | Cytotoxicity for Fibroblasts (GI20) HaCaT (keratinocytes HaCaT; [7]) [µM] | Cytotoxicity for Fibroblasts (GI20) ARPE-19 [2, 8] [μM] | Cytotoxicity for Fibroblasts (GI20) BJ (skin fibroblasts BJ) [µM] | solubility [5, 9] [µg/mL] | solubility [5, 10] [µg/mL] | solubility [5, 11] [µg/mL] | solubility [5, 12] [µg/mL] | solubility [5, 13] [µg/mL] | solubility [5, 14] [µg/mL] | solubility [5, 15] [µg/mL] | also measured
1 | COc1cccc(CNc2ncnc3nc[nH]c23)c1 [3MeOBAP, 6-(3-methoxybenzylamino)purine] | 1.7 | 4.1 | 4.3 | 0.0 | 0.0 | 0.03 | > 167 | 125 |  |  |  |  |  |  |  |  |  |  | 
2 | CS(=O)(=O)O.c1ccc(CNc2ncnc3nc[nH]c23)cc1 [BAP mesylate, 6-benzylaminopurine mesylate] | 0.9 | 1.4 | 4.1 | 0.0 | 0.0 | 0.00 | > 167 |  | >100 | >100 | >100 |  |  |  |  |  |  |  | 
3 | c1ccc(CNc2ncnc3nc[nH]c23)cc1 [BAP, 6-benzylaminopurine] | rooted badly | 1.1 | high shoot multiplication rate | 0.0 | 0.0 | 0.00 |  |  |  |  | 137.5 |  |  |  |  |  |  |  | Cytotoxicity for Fibroblasts (GI20) HaCaT (keratinocytes HaCaT; human, 72 h): >100 µM; Number of roots per plant (rose explants; listed as 6-benzylaminopurine): 0.6; Number of new shoots per explant (rose explants; listed as 6-benzylaminopurine): 3.8; Cytotoxicity for Fibroblasts (GI20) ARPE-19 ([2]; human, 72 h): >100 μM
4 | CS(=O)(=O)O.Oc1cccc(CNc2ncnc3nc[nH]c23)c1 [mT mesylate, 6-(3-hydroxybenzylamino)purine mesylate] | 1.8 | 4.3 | 2.4 | 0.0 | 0.0 | 0.17 |  |  | >100 | >100 | >100 | 6000 | 22000 | 400 | < 250 | 400 | < 100 | 700 | Disproportionation (XRPD) [3]: No signs of disproportionation were observed; Storage stability (XRPD pattern and colour) [4]: did not reveal any changes in XRPD spektra, or change in color
5 | Oc1cccc(CNc2ncnc3nc[nH]c23)c1 [meta-topolin (mT), 6-(3-hydroxybenzylamino)purine] | 1.4 | 3.8 | 2.1 | 0.0 | 0.0 | 0.16 |  | > 167 | >100 | >100 | >100 | 6000 (≈ 24.9 mM) | 24000 (≈ 99.5 mM) | 400 (≈ 1.66 mM) | < 250 | 5000 (≈ 20.7 mM) | < 100 | 5000 (≈ 20.7 mM) | aqueous solubility (reported) [6]: < 250 µg/mL
6 | Oc1ccccc1CNc1ncnc2nc[nH]c12 [ortho-topolin (oT), 6-(2-hydroxybenzylamino)purine] |  |  |  |  |  |  |  | 103 | >100 | >100 | 98.7 |  |  |  |  |  |  |  | 
